Assays:
EphB4 = assay: EGF regulation of EphB4 in SCC15 cells with kinase inhibitors (Western blot); format: cell-based, human; details: for EGF stimulated induction of EphB4: serum-starved SCC15, 10 ng/ml EGF, 24 h; for basal levels of EphB4: serum-starved SCC15, 24 h
Method: B) SCC15 cells were serum-starved for 24 h prior to an additional 24 incubation as indicated with or without EGF (10 ng/ml), 3 μM U73122, or 5 μM SH-5, 5 μM SP600125, […] LY294002, - - μM PD098095 or 5 μM SB203580. N/A indicates cultures that received equal volume of diluent (DMSO) only. Cell lysates were subjected to Western Blot with EphB4 monoclonal antibody. β-actin signal serves as control of protein loading and transfer.

human endothelial cells = assay: Endothelial cell chemotaxis / migration (Boyden chamber); format: cell-based; details: umbilical cord and hepatic AECs or VECs; growth factor stimuli
Method: Migration is assessed using the 48-well Boyden chamber and 8 μm pore size collagen-coated (10 μg/ml rat tail collagen; Collaborative Laboratories) polycarbonate filters (Osmonics, Inc.). The bottom chamber wells receive 27-29 μl of DMEM medium alone (baseline) or medium containing chemo-attractant (bFGF, VEGF or Swiss 3T3 cell conditioned medium). The top chambers receive 45 μl of HUVEC cell suspension (1×10^6 cells/ml) prepared in DMEM+1% BSA with or without test compound. After 5 h incubation at 37° C., the membrane is rinsed in PBS, fixed and stained in Diff-Quick solutions. The filter is placed on a glass slide with the migrated cells facing down and cells on top are removed using a Kimwipe. The testing is performed in 4-6 replicates and five fields are counted from each well. Negative unstimulated control values are subtracted from stimulated control and drug treated values and data is plotted as mean migrated cell±S.D. IC50 is calculated from the plotted data.
Chemotaxis of HUVECs to VEGF was assessed using a modified Boyden chamber, transwell membrane filter inserts in 24 well plates, 6.5 mm diam, 8 μm pore size, 10 μm thick matrigel coated, polycarbonate membranes (BD Biosciences). The cell suspensions of HUVECs (2×10^5 cells/ml) in 200 μl of EBM were seeded in the upper chamber and the soluble EphB4 protein were added simultaneously with stimulant (VEGF or bFGF) to the lower compartment of the chamber and their migration across a polycarbonate filter in response to 10-20 ng/ml of VEGF with or without 100 nM-1 μM test compound was investigated. After incubation for 4-24 h at 37° C., the upper surface of the filter was scraped with swab and filters were fixed and stained with Diff Quick. Ten random fields at 200× mag were counted and the results expressed as mean # per field. Negative unstimulated control values were subtracted from stimulated control and protein treated sample values and the data was plotted as mean migrated cell±S.D. IC50 was calculated from the plotted data.

HUVEC = assay: Endothelial cell tube (cord) formation on Matrigel; format: cell-based, human
Method: Cord formation assay of HUVEC in Matrigel™ (upper row). Cells in exponential growth phase were treated overnight with the indicated concentrations of EphB4 extracellular domain (ECD) prior to plating on Matrigel™. Cells were trypsinized and plated (1×10^5 cells/well) in a 24-well plate containing 0.5 ml Matrigel™. Shown are representative 20× phase contrast fields of cord formation after 8 hr plating on Matrigel™ in the continued presence of the test compounds as shown. Original magnification 200×. KS-SLK cells treated in a similar manner (middle row) in a cord formation assay on Matrigel™. […] After 7 days the plugs were removed, sectioned and stained with H&E to visualize cells migrating into the matrix.
Matrigel (60 μl of 10 mg/ml; Collaborative Lab #35423) is placed in each well of an ice-cold 96-well plate. The plate is allowed to sit at room temperature for 15 minutes then incubated at 37° C. for 30 minutes to permit the matrigel to polymerize. In the mean time, HUVECs are prepared in EGM-2 (Clonetic #CC3162) at a concentration of 2×10^5 cells/ml. The test compound is prepared at 2× the desired concentration (5 concentration levels) in the same medium. Cells (500 μl) and 2× drug (500 μl) is mixed and 200 μl of this suspension are placed in duplicate on the polymerized matrigel. After 24 h incubation, triplicate pictures are taken for each concentration using a Bioquant Image Analysis system. Drug effect (IC50) is assessed compared to untreated controls by measuring the length of cords formed and number of junctions.
Matrigel (60 μl of 10 mg/ml; Collaborative Lab, Cat. No. 35423) was placed in each well of an ice-cold 96-well plate. The plate was allowed to sit at room temperature for 15 minutes then incubated at 37° C. for 30 minutes to permit Matrigel to polymerize. In the mean time, human umbilical vein endothelial cells were prepared in EGM-2 (Clonetic, Cat. No. CC3162) at a concentration of 2×10^5 cells/ml. The test protein was prepared at 2× the desired concentration (5 concentration levels) in the same medium. Cells (500 μl) and 2× protein (500 μl) were mixed and 200 μl of this suspension were placed in duplicate on the polymerized Matrigel. After 24 h incubation, triplicate pictures were taken for each concentration using a Bioquant Image Analysis system. Protein addition effect (IC50) was assessed compared to untreated controls by measuring the length of cords formed and number of junctions.

EphrinB2 = target: T1, EphrinB2 (Homo sapiens, UniProt P52799); assay: Ephrin B2-AP binding to immobilized EphB4EC proteins; details: B4 proteins immobilized on Ni2+-resin or nitrocellulose
T1 construct: protein fusion of Ephrin B2 ectodomain with placental alkaline phosphatase
T1 sequence (P52799 28-229 limits assumed): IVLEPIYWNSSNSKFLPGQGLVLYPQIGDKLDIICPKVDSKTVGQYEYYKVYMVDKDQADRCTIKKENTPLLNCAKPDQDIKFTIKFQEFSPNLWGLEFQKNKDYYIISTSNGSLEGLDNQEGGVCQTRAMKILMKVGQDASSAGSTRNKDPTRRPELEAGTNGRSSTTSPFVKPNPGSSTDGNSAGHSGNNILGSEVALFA
Method: 10 μl of Ni-NTA-Agarose were incubated in microcentrifuge tubes with 50 μl of indicated amount of B4ECv3 diluted in binding buffer BB (20 mM Tris-HCl, 0.15 M NaCl, 0.1% bovine serum albumin pH 8) After incubation for 30 min on shaking platform, Ni-NTA beads were washed twice with 1.4 ml of BB, followed by application of 50 μl of B2-AP in the final concentration of 50 nM. Binding was performed for 30 min on shaking platform, and then tubes were centrifuged and washed one time with 1.4 ml of BB. Amount of precipitated AP was measured colorimetrically after application of PNPP.
To confirm ability of the purified recombinant proteins to bind Ephrin B2, they were tested in an in vitro binding assay. As expected, GC, GCF1 and GCF2, but not CF2 are binding the cognate ligand Ephrin B2 as confirmed by interaction between Ephrin B2-alkaline phosphatase (Ephrin B2-AP) fusion protein with the B4 proteins immobilized on Ni^2+-resin or on nitrocellulose membrane (FIG. 17).

EphB4 receptor = assay: Cell-based EphB4 tyrosine kinase assay in PC3 cells; set-up: species or system human; details: Ephrin B2-Fc ligand preincubated with protein
Method: All four proteins were also tested for their ability to block ligand-dependent dimerization and activation of Eph B4 receptor kinase in PC3 cells. The PC3 human prostate cancer cell line is known to express elevated levels of human Eph B4. Stimulation of PC3 cells with Ephrin B2 IgG Fc fusion protein leads to a rapid induction of tyrosine phosphorylation of the receptor. However, preincubation of the ligand with GCF2, GCF1 or GC, but not CF2 proteins suppresses subsequent EphB4 autophosphorylation.
The human prostate carcinoma cell line PC3 cells were maintained in RPMI medium with 10% dialyzed fetal calf serum and 1% penicillin/streptomycin/neomycin antibiotics mix. Cells were maintained at 37° C. in a humidified atmosphere of 5% CO2/95% air. Typically, cells were grown in 60 mm dishes until confluency and were either treated with mouse Ephrin B2-Fc fusion at 1 μg/ml in RPMI for 10 min to activate EphB4 receptor or plain medium as a control. To study the effect of different derivatives of soluble EphB4 ECD proteins on EphB4 receptor activation, three sets of cells were used. In the first set, cells were treated with various proteins (5 proteins; GC, GCF1, GCF2, GCF2-F, CF2) at 5 μg/ml for 20 min. In the second set of cells, prior to application, proteins were premixed with ephrinB2-Fc at 1:5 (EphB4 protein:B2-Fc) molar ratio, incubated for 20 min and applied on cells for 10 min. In the third set of cells, cells were first treated with the proteins for 20 min at 5 μg/ml, media was replaced with fresh media containing 1 μg/ml of EphrinB2-Fc and incubated for another 10 min.
After the stimulation, cells were immediately harvested with protein extraction buffer containing 20 mM Tris-HCl, pH 7.4, 150 mM NaCl, 1% (v/v) Triton X100, 1 mM EDTA, 1 mM PMSF, 1 mM Sodium vanadate. Protein extracts were clarified by centrifugation at 14,000 rpm for 20 min at 4° C. Clarified protein samples were incubated overnight with protein A/G coupled agarose beads pre-coated with anti-EphB4 monoclonal antibodies. The IP complexes were washed twice with the same extraction buffer containing 0.1% Triton X100. The immunoprecipitated proteins were solubilized in 1×SDS-PAGE sample loading buffer and separated on 10% SDS-PAGE. For EphB4 receptor activation studies, electroblotted membrane was probed with anti-pTyr specific antibody 4G10 at 1:1000 dilution followed by Protein G-HRP conjugate at 1:5000 dilutions.

In the case of `COc1cccc(-c2cc(=O)c3ccccc3o2)c1N` [PD098095], the “EGF stimulated induction of EphB4” value (EphB4) is reported as “no discernible effect” and the “basal levels of EphB4” value (EphB4) is reported as “reduced”.

For `C[S+]([O-])c1ccc(-c2nc(-c3ccncc3)c(-c3ccc(F)cc3)[nH]2)cc1` (centres unmarked) [SB203580], the “basal levels of EphB4” value (EphB4) was “increased”.

For `CCCCCCCCCCCCCCCCCCOC[C@H](COP(=O)(O)O[C@H]1[C@H](O)[C@@H](O)[C@H](O)C[C@H]1OC)OC` [SH-5], the “EGF stimulated induction of EphB4” value (EphB4) was “blocked” and the “basal levels of EphB4” value (EphB4) was “reduced”.

`COc1ccc2c(c1)CC[C@@H]1[C@@H]2CC[C@]2(C)[C@@H](NCCCCCCN3C(=O)C=CC3=O)CC[C@@H]12` [U73122] was tested, and the “EGF stimulated induction of EphB4” value (EphB4) was “blocked” and the “basal levels of EphB4” value (EphB4) was “reduced”.

“B2EC-FC: Ephrin B2 extracellular domain fused to human IgG1 Fc fragment, SEQ ID NO:5” was tested, and the “chemotaxis of human endothelial cells” value (human endothelial cells) was “blocked chemotaxis” and the “endothelial cell tube / tubule / cord formation” value (HUVEC) was “inhibition”.

B1: B2EC: soluble extracellular domain of human Ephrin B2, SEQ ID NO:3 (protein)
chain: MAVRRDSVWKYCWGVLMVLCRTAISKSIVLEPIYWNSSNSKFLPGQGLVLYPQIGDKLDIICPKVDSKTVGQYEYYKVYMVDKDQADRCTIKKENTPLLNCAKPDQDIKFTIKFQEFSPNLWGLEFQKNKDYYIISTSNGSLEGLDNQEGGVCQTRAMKILMKVGQDASSAGSTRNKDPTRRPELEAGTNGRSSTTSPFVKPNPGSSTDGNSAGHSGNNILGSEVGSHHHHHH
modifications: Recombinant B2EC protein
In the case of B1, the “chemotaxis of human endothelial cells” value (human endothelial cells) is reported as “blocked chemotaxis”.

B2: GC: EphB4EC deletion variant, globular domain and Cys-rich domain, 6xHis tagged, SEQ ID NO:12 (protein)
chain: MELRVLLCWASLAAALEETLLNTKLETADLKWVTFPQVDGQWEELSGLDEEQHSVRTYEVCEVQRAPGQAHWLRTGWVPRRGAVHVYATLRFTMLECLSLPRAGRSCKETFTVFYYESDADTATALTPAWMENPYIKVDTVAAEHLTRKRPGAEATGKVNVKTLRLGPLSKAGFYLAFQDQGACMALLSLHLFYKKCAQLTVNLTRFPETVPRELVVPVAGSCVVDAVPAPGPSPSLYCREDGQWAEQPVTGCSCAPGFEAAEGNTKCRACAQGTFKPLSGEGSCQPCPANSHSNTIGSAVCQCRVGYFRARTDPRGAPCTTPPSAHHHHHH
modifications: Recombinant B4EC-GC
In the case of B2, the “binding the cognate ligand Ephrin B2” value (EphrinB2) is reported as “binding” and the EphB4 autophosphorylation (EphB4 receptor) is reported as “suppresses”.

B3: GCF1: EphB4EC variant, globular, Cys-rich and the first FNIII domain, 6xHis tagged, SEQ ID NO:13 (protein)
chain: MELRVLLCWASLAAALEETLLNTKLETADLKWVTFPQVDGQWEELSGLDEEQHSVRTYEVCEVQRAPGQAHWLRTGWVPRRGAVHVYATLRFTMLECLSLPRAGRSCKETFTVFYYESDADTATALTPAWMENPYIKVDTVAAEHLTRKRPGAEATGKVNVKTLRLGPLSKAGFYLAFQDQGACMALLSLHLFYKKCAQLTVNLTRFPETVPRELVVPVAGSCVVDAVPAPGPSPSLYCREDGQWAEQPVTGCSCAPGFAEGNTKCRACAQGTFKPLSGEGSCQPCPANSHSNTIGSAVCQCRVGYFRARTDPRGAPCTTPPSAPRSVVSRLNGSSLHLEWSAPLESGGREDLTYALRCRECRPGGSCAPCGGDLTFDPGPRDLVEPWVVVRGLRPDFTYTFEVTALNGVSSLATGPVPFEPVNVHHHHHH
modifications: Recombinant GCF
For B3, the “binding the cognate ligand Ephrin B2” value (EphrinB2) was “binding” and the EphB4 autophosphorylation (EphB4 receptor) was “suppresses”.
